Fold change (FC) and inhibition data for three compounds are collected here from ChEMBL document CHEMBL5653631, “A Potent and Selective ULK1 Inhibitor Suppresses Autophagy and Sensitizes Cancer Cells to Nutrient Stress” (iScience, 2018).

The target in test [1] is T1, Serine/threonine-protein kinase haspin (Homo sapiens) (UniProt Q8TF76).
T1 sequence (whole entry): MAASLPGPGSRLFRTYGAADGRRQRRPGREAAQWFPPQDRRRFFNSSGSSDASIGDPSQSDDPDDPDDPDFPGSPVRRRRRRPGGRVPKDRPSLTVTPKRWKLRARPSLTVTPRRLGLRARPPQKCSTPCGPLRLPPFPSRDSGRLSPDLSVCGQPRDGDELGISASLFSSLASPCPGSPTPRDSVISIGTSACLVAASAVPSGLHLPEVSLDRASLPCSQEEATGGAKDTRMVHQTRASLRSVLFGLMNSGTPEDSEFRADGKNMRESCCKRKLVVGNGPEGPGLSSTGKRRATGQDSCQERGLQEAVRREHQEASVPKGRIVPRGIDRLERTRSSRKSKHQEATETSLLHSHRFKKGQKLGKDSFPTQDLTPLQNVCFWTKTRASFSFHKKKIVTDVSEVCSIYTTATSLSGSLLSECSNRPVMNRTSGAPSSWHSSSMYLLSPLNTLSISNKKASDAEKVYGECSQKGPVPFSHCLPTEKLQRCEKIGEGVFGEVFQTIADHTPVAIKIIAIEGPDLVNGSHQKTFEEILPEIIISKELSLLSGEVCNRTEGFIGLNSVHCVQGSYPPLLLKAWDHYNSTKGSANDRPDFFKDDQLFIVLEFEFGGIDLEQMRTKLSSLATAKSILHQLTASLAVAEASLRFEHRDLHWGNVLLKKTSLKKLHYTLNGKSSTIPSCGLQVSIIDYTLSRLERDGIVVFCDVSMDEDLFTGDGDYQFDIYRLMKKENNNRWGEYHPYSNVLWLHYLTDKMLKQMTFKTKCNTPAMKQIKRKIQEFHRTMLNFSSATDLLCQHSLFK
In words: Inhibition of human recombinant Haspin at 15 nM related to control ULK1.

Test [2] has as its target Death-associated protein kinase 2 (Homo sapiens) (UniProt Q9UIK4). In words: Inhibition of human recombinant DAPK2 at 15 nM in presence of ATP by radiometric assay relative to control.
Test [3] addresses T2, MAP kinase-activated protein kinase 5 (Homo sapiens) (UniProt Q8IW41).
T2 sequence (whole entry): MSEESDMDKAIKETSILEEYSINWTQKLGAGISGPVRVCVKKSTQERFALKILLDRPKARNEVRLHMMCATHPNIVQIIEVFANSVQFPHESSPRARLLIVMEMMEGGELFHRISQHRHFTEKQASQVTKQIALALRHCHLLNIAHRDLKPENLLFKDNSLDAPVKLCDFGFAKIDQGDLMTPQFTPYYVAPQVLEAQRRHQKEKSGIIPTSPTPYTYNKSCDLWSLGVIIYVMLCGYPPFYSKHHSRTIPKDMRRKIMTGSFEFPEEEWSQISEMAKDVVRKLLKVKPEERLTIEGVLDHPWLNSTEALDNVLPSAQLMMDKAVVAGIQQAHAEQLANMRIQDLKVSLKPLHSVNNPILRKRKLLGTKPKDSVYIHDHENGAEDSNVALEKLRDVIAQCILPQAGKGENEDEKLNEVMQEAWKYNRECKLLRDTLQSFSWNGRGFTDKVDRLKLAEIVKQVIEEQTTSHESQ
In words: Inhibition of human recombinant MAPKAPK5 at 15 nM related to control ULK1.

The target in test [4] is Transcription initiation factor TFIID subunit 1-like (Homo sapiens) (UniProt Q8IZX4). Briefly: Inhibition of human recombinant TAF1L at 15 nM in presence of ATP by radiometric assay relative to control.
Transcription initiation factor TFIID subunit 1-like (Homo sapiens), sequence (Q8IZX4 whole entry): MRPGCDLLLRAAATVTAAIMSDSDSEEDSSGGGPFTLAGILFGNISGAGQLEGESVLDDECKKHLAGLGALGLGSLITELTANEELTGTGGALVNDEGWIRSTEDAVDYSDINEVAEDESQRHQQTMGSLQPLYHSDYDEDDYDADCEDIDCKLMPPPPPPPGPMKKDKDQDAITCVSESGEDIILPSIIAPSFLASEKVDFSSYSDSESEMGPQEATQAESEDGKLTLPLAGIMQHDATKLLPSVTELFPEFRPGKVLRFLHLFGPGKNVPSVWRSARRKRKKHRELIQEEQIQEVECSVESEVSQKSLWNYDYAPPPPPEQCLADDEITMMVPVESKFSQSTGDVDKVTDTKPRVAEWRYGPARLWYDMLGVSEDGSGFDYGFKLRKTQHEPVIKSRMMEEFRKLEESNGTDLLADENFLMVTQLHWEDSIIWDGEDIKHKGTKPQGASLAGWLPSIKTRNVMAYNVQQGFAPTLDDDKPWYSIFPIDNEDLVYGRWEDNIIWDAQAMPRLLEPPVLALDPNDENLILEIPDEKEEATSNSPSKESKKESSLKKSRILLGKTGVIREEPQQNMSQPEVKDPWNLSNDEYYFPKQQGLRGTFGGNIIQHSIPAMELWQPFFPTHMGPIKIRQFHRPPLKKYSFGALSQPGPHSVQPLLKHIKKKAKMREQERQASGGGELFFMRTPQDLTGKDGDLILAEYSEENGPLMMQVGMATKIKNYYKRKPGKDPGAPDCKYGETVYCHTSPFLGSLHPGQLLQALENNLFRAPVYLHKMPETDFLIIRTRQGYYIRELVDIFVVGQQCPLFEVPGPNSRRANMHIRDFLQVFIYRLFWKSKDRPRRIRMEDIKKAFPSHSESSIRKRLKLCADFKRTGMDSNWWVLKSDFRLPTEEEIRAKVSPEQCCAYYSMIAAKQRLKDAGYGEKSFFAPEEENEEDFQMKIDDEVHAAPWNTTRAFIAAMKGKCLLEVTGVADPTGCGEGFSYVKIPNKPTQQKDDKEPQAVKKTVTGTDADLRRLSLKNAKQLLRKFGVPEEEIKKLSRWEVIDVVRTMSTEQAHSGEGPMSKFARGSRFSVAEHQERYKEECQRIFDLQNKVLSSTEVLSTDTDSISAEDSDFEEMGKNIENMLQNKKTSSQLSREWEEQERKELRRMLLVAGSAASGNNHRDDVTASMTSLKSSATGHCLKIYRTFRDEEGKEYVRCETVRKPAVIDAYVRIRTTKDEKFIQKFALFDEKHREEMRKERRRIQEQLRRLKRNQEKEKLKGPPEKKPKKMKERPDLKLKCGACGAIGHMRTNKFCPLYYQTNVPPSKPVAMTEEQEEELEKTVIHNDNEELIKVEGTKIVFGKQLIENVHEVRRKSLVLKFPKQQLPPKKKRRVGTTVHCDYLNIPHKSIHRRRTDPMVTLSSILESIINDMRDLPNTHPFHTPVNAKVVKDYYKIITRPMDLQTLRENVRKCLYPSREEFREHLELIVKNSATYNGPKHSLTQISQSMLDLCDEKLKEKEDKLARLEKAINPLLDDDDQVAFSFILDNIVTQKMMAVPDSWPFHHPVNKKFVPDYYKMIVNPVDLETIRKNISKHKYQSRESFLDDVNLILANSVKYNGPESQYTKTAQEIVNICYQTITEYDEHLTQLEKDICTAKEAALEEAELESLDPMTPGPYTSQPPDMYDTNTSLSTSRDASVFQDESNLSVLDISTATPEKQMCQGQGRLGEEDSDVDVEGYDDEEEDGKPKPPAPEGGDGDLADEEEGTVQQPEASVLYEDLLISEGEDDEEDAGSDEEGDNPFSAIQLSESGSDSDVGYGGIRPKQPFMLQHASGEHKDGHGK
In test [5] the target is T3, Eukaryotic elongation factor 2 kinase (Homo sapiens) (UniProt O00418).
T3 sequence (whole entry): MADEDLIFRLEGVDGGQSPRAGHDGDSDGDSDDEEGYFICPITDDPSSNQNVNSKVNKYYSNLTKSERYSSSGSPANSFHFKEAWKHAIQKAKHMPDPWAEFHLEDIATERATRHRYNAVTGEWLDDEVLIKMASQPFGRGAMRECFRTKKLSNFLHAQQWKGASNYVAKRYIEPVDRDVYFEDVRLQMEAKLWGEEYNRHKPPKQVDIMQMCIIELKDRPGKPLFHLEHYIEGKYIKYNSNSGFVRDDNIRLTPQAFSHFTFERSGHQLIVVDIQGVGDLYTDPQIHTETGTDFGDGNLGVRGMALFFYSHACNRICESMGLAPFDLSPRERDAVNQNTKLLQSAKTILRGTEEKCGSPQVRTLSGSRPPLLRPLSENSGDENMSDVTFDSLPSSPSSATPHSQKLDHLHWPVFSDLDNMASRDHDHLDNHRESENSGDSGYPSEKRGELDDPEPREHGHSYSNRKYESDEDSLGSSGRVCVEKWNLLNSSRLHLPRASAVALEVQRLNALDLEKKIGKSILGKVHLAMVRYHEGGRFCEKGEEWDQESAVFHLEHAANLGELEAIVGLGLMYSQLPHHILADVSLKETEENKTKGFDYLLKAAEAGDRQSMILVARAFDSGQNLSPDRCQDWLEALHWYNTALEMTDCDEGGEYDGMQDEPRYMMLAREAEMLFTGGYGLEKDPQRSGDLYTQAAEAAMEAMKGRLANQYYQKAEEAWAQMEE
Briefly: Inhibition of human recombinant eEF2K at 40 nM in presence of ATP by radiometric assay relative to control.

The target of test [6] is T4, Rhodopsin kinase GRK1 (Homo sapiens) (UniProt Q15835).
T4 sequence (whole entry): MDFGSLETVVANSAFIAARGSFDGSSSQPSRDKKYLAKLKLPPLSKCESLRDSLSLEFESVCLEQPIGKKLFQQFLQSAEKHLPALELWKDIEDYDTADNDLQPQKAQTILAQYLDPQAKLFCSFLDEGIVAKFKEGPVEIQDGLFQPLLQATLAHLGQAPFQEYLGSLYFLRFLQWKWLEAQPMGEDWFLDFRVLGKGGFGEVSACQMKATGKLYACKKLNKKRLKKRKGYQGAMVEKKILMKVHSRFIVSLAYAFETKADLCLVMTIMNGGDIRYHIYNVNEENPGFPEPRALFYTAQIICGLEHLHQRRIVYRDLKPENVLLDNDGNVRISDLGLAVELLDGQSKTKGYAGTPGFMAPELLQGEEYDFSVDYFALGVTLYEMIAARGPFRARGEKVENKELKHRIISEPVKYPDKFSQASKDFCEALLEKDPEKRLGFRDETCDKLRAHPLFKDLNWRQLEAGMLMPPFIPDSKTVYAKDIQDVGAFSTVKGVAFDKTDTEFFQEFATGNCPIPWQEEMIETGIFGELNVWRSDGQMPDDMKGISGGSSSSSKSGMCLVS
Briefly: Inhibition of human recombinant RHOK at 500 nM related to control ULK1.

For test [7], the target named is Serine/threonine-protein kinase D2 (Homo sapiens) (UniProt Q9BZL6). In words: Inhibition of human recombinant PKD2 at 500 nM related to control ULK1.
Serine/threonine-protein kinase D2 (Homo sapiens), sequence (Q9BZL6 whole entry, looked up): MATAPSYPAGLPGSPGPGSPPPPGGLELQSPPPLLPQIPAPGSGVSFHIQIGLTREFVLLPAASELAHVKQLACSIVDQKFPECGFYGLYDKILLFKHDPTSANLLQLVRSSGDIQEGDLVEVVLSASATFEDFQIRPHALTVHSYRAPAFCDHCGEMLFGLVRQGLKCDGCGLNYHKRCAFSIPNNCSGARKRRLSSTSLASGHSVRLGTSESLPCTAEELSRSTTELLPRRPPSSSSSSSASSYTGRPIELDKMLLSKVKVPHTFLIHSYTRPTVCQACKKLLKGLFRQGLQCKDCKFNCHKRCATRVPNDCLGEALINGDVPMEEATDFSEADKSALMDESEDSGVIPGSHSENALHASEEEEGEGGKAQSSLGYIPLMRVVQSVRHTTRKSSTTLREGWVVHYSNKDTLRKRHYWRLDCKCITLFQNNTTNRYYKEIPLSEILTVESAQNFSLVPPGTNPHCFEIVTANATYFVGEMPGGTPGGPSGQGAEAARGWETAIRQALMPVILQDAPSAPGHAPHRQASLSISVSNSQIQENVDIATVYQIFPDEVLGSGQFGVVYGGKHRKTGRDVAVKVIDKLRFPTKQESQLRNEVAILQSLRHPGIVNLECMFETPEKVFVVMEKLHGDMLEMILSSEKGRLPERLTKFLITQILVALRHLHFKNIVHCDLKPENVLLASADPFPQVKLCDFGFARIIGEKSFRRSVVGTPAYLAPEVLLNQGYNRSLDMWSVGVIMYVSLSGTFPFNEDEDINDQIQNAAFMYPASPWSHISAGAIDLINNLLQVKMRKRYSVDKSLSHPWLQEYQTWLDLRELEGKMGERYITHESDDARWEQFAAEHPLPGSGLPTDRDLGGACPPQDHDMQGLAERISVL
The target in test [8] is Tyrosine-protein kinase Yes (Homo sapiens) (UniProt P07947). Briefly: Inhibition of human recombinant YES at 500 nM in presence of ATP by radiometric assay relative to control.
Tyrosine-protein kinase Yes (Homo sapiens), sequence (P07947 2-543 limits assumed): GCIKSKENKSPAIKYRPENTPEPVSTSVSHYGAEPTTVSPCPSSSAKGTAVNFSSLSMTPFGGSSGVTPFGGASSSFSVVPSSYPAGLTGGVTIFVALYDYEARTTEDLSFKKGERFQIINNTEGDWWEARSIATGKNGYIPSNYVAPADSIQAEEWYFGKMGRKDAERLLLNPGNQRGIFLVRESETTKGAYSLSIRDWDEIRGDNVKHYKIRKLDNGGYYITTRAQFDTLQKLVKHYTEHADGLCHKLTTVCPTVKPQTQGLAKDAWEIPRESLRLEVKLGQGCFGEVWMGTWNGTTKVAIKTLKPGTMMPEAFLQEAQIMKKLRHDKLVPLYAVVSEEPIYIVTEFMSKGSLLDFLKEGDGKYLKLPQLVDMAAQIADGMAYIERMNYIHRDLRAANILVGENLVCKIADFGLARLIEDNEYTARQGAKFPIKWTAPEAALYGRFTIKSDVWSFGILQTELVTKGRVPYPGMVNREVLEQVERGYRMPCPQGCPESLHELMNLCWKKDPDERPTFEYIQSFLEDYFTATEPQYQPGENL

Death-associated protein kinase 2 (Homo sapiens), sequence (Q9UIK4 whole entry, looked up): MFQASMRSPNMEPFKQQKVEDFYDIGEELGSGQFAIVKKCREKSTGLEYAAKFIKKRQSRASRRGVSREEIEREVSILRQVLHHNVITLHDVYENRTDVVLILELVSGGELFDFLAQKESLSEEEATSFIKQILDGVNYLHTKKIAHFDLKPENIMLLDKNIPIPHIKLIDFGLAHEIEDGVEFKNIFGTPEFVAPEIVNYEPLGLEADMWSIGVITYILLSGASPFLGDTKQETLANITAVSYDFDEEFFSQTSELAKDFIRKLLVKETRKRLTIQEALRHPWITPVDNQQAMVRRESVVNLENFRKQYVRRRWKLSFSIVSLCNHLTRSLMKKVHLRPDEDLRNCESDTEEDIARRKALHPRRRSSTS

Regarding `CC(C)[C@H](NC(=O)c1cc(-c2cnn3cc(-c4ccc(OCCN5CCCCC5)cc4)cnc23)cs1)C(F)(F)F`, the fold change (FC) in test [1] and in test [3] was 0 each time. Besides, the inhibition – broadly, the change of the read-out against control, counted positive when it falls – in test [2] was found to be 6%; in test [4], 43%.
For the compound `O=C(N[C@@H](C1CC1)C(F)(F)F)c1cc(-c2cnn3cc(-c4ccc(F)cc4)cnc23)cs1`, in test [5], the inhibition was found to be 7%.
`CNC(=O)c1ccccc1Oc1nc(Nc2cc(OC)c(OC)c(OC)c2)ncc1Br`: the fold change (FC) in test [6] was determined as 0; in test [7], 0.16. For the same compound, in test [8], the inhibition stood at 66%.
